Experiments:
Collagenase 3 = Collagenase 3 (Homo sapiens, UniProt P45452); test: Inhibition of human MMP13 using Mca-PQG1 peptide substrate assessed as substrate cleavage after 2 to 4 hrs
[1] = Metabolic stability in human liver microsomes assessed as compound degradation after 30 mins by LC-MS analysis; type: ADME, Microsome; conditions: read-out: Drug degradation
Cytochrome P450 2C9 = Cytochrome P450 2C9 (Homo sapiens, UniProt P11712); test: Inhibition of human CYP2C9; type: ADME
Cytochrome P450 3A4 = Cytochrome P450 3A4 (Homo sapiens, UniProt P08684); test: Inhibition of human CYP3A4; type: ADME
Sequence of Cytochrome P450 3A4 (P08684 whole entry): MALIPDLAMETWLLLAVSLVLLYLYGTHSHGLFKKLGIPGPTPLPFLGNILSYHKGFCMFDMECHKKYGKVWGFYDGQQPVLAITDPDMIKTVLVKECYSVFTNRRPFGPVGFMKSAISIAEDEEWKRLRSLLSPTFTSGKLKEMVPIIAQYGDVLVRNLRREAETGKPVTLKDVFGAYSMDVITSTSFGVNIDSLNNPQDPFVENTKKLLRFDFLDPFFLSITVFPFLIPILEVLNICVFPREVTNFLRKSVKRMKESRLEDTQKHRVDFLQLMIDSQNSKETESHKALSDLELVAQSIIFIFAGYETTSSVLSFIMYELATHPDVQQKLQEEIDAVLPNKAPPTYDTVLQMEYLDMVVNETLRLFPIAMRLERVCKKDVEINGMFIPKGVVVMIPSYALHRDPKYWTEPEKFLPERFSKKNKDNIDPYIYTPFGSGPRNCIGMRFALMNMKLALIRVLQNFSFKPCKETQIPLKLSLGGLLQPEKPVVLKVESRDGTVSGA

[2] = Oral bioavailability in Sprague-Dawley rat; type: ADME, organism-based; conditions: in vivo
Rattus norvegicus [3] = organism: Rattus norvegicus; test: Reduction in meniscal tear-induced osteoarthritis total joint score in chronic BID Lewis rat surgical model; type: functional, organism-based
[4] = Tmax in Sprague-Dawley rat at 10 mg/kg, po; type: ADME, organism-based; parameters: dose 10 mg/kg, route oral; conditions: in vivo
[5] = molecular target: T1, A disintegrin and metalloproteinase with thrombospondin motifs 4 (Homo sapiens, UniProt O75173); test: Inhibition of human ADAMTS-4 using VQTVTWPDMELPLPRNITEGEARGSVILTVKPIFEVSPSPLKG peptide substrate by AlphaScreen assay
T1 sequence (O75173 whole entry): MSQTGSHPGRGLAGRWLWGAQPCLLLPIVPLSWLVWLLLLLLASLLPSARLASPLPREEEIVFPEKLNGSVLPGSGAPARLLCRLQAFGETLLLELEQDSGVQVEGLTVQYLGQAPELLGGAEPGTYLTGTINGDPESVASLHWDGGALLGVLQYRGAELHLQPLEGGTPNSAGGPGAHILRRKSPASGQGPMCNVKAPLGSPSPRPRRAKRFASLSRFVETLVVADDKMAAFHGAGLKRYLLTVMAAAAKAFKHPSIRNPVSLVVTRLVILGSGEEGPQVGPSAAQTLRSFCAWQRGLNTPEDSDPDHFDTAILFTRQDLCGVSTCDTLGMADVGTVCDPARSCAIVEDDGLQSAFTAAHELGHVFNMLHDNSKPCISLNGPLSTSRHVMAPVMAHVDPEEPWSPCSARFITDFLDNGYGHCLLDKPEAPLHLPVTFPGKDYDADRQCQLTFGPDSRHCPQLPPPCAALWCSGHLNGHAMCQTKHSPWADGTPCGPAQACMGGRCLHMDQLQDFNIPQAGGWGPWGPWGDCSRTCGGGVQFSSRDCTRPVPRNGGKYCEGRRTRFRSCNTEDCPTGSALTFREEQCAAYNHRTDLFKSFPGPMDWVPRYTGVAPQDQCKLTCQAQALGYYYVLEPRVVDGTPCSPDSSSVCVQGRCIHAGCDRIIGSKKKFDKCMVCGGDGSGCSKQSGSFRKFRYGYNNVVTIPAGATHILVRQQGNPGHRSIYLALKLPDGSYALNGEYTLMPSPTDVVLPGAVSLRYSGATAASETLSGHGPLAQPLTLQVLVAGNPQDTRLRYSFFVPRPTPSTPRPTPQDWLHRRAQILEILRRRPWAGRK

[6] = Metabolic stability in rat liver microsomes assessed as compound degradation after 30 mins by LC-MS analysis; type: ADME, Microsome; conditions: read-out: Drug degradation
[7] = molecular target: Disintegrin and metalloproteinase domain-containing protein 17 (Homo sapiens, UniProt P78536); test: Inhibition of human TACE using Mca-PQG1 peptide substrate assessed as substrate cleavage after 2 to 4 hrs
Sequence of Disintegrin and metalloproteinase domain-containing protein 17 (P78536 whole entry, the tested form may be a part): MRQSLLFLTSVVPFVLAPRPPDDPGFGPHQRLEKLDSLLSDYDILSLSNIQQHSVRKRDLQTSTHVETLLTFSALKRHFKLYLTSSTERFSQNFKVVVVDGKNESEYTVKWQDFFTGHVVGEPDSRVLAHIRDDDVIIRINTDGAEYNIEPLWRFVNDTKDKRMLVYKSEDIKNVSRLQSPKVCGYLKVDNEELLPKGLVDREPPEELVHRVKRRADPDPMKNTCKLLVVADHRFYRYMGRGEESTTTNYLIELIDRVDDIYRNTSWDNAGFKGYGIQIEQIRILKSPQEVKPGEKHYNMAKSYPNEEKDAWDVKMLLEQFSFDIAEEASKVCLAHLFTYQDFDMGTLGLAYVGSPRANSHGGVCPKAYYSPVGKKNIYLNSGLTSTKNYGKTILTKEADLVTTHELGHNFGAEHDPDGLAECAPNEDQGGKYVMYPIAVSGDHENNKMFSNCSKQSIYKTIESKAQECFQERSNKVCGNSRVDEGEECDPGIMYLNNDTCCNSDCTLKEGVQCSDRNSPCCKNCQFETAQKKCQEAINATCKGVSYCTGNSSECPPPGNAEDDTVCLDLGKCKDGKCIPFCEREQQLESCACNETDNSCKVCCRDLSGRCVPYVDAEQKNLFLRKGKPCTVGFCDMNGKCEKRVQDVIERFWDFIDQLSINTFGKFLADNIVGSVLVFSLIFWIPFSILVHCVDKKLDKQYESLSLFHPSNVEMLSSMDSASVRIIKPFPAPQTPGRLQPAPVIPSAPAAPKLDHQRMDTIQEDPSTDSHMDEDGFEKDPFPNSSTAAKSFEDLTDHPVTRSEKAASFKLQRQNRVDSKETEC

[8] = molecular target: T2, A disintegrin and metalloproteinase with thrombospondin motifs 5 (Homo sapiens, UniProt Q9UNA0); test: Inhibition of human ADAMTS-5 using VQTVTWPDMELPLPRNITEGEARGSVILTVKPIFEVSPSPLKG peptide substrate by AlphaScreen assay in presence of 50% rat plasma
T2 sequence (Q9UNA0 whole entry): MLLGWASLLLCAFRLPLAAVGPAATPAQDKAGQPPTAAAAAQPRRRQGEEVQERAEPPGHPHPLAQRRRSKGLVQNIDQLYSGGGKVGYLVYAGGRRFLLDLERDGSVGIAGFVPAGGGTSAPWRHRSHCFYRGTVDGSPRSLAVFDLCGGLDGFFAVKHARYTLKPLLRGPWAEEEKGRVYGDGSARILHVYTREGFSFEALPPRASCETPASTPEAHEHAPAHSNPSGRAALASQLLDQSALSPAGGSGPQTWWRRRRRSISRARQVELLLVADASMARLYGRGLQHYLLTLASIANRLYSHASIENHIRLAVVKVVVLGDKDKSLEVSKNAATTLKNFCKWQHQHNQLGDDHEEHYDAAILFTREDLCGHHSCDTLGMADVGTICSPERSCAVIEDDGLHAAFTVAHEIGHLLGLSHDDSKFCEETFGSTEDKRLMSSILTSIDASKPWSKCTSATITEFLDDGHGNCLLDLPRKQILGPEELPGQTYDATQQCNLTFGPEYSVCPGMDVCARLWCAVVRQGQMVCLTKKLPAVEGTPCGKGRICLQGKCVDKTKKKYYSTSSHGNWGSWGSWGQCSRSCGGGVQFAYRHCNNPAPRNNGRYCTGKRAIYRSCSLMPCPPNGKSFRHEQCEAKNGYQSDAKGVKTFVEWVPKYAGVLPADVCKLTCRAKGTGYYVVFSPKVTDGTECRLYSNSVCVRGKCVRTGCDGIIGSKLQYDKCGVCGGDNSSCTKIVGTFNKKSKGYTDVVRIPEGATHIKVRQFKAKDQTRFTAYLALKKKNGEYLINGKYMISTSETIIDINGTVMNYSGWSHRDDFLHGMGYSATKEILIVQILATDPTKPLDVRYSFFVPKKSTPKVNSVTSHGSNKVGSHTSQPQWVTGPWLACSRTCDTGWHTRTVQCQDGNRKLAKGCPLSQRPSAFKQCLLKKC

[9] = molecular target: Matrix metalloproteinase-14 (Homo sapiens, UniProt P50281); test: Inhibition of human MMP14 using Mca-PQG1 peptide substrate assessed as substrate cleavage after 2 to 4 hrs
Cytochrome P450 2D6 = Cytochrome P450 2D6 (Homo sapiens, UniProt P10635); test: Inhibition of human CYP2D6; type: ADME
Sequence of Cytochrome P450 2D6 (P10635 whole entry): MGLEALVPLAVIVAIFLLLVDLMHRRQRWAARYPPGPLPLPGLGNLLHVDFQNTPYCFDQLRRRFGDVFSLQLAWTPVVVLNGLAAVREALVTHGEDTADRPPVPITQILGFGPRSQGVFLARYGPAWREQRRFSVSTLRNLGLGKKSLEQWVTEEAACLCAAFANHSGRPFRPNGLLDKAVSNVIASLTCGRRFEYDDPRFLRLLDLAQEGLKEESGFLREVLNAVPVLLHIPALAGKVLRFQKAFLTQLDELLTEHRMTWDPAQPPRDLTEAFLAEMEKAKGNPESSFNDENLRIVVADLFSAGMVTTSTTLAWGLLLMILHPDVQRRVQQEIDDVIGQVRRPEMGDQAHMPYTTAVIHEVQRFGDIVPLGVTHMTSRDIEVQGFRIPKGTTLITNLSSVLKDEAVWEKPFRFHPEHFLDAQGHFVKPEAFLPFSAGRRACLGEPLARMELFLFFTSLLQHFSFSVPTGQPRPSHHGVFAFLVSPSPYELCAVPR

[10] = AUC in Sprague-Dawley rat at 10 mg/kg, po; type: ADME, organism-based; parameters: dose 10 mg/kg, route oral; conditions: plasma
[11] = Plasma concentration in rat at 10 mg/kg, po after 2 hrs; type: ADME, organism-based; parameters: dose 10 mg/kg, route oral
[12] = molecular target: T2, A disintegrin and metalloproteinase with thrombospondin motifs 5; test: Inhibition of human ADAMTS-5 using VQTVTWPDMELPLPRNITEGEARGSVILTVKPIFEVSPSPLKG peptide substrate by AlphaScreen assay
Rattus norvegicus [13] = test: Reduction in ADAMTS-4/ADAMTS-5-mediated aggrecan cleavage products in po dosed Lewis rat MIA model assessed as aggrecanase-cleaved fragments treatment starting from day 3 and single dose given on day 7 followed by animal sacrificed 4 hrs later by NITEGE sandwich ELISA assay; type: functional
[14] = Plasma concentration in rat at 10 mg/kg, po after 8 hrs; type: ADME, organism-based; parameters: dose 10 mg/kg, route oral
Stromelysin-1 = Stromelysin-1 (Homo sapiens, UniProt P08254); test: Inhibition of human MMP3 using Mca-PQG1 peptide substrate assessed as substrate cleavage after 2 to 4 hrs
Sequence of Stromelysin-1 (P08254 whole entry): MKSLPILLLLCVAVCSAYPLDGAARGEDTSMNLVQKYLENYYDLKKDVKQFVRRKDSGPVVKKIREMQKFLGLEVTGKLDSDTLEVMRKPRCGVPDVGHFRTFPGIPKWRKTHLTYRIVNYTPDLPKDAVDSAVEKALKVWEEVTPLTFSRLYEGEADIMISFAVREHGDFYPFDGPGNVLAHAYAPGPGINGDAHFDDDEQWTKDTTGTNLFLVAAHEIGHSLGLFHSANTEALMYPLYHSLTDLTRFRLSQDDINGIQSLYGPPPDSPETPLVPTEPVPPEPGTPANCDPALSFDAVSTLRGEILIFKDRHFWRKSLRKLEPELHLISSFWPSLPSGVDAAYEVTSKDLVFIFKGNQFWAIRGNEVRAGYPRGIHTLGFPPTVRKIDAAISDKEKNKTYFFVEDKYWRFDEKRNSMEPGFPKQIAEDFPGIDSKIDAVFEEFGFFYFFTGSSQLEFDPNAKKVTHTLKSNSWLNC

[15] = molecular target: 72 kDa type IV collagenase (Homo sapiens, UniProt P08253); test: Inhibition of human MMP2 using Mca-PQG1 peptide substrate assessed as substrate cleavage after 2 to 4 hrs
Sequence of 72 kDa type IV collagenase (P08253 whole entry): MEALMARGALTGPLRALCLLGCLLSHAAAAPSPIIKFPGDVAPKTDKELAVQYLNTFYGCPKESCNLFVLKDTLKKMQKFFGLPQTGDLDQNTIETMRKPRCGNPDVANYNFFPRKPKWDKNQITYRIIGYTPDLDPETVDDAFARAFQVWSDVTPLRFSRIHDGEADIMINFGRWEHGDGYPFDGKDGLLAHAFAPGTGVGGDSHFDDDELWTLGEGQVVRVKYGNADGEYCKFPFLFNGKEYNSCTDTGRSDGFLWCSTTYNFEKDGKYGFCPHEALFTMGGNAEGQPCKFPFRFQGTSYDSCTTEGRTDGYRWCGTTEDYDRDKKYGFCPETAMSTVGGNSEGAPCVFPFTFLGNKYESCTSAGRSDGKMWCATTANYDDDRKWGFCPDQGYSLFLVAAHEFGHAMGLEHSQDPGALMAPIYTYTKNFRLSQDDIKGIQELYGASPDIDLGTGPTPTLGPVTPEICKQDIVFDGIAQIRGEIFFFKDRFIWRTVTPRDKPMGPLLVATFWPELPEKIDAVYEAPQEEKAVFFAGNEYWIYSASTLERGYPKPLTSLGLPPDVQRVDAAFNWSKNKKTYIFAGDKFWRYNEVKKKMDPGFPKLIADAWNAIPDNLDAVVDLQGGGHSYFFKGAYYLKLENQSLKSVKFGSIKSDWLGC

[16] = Half life in Sprague-Dawley rat at 10 mg/kg, po; type: ADME, organism-based; parameters: dose 10 mg/kg, route oral; conditions: in vivo
[17] = Cmax in Sprague-Dawley rat at 10 mg/kg, po; type: ADME, organism-based; parameters: dose 10 mg/kg, route oral; conditions: in vivo
[18] = Clearance in Sprague-Dawley rat; type: ADME, organism-based; conditions: in vivo

Sequence of Cytochrome P450 2C9 (P11712 whole entry): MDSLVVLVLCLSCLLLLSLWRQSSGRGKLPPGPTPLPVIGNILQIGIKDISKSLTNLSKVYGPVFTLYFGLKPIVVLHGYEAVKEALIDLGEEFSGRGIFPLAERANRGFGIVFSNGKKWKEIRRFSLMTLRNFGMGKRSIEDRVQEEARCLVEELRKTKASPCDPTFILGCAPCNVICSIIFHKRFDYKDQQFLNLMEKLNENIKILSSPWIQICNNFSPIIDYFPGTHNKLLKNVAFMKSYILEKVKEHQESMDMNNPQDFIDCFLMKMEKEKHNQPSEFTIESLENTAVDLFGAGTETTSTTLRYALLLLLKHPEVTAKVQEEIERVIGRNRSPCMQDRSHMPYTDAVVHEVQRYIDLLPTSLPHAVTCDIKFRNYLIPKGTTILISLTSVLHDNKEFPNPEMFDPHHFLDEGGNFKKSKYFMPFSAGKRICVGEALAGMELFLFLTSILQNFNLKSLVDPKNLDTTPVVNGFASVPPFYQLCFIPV

| SMILES | IC50 (Collagenase 3) [nM] | metabolised at 0.5 h [1] [%] | bioavailability [2] [%] | Tmax [4] [h] | IC50 [5] [nM] | metabolised at 0.5 h [6] [%] | IC50 [7] [nM] | IC50 [8] [nM] | IC50 [9] [nM] | AUC [10] [ng·h/mL] | concentration at 2 h [11] [ng/mL] | IC50 [12] [nM] | concentration at 8 h [14] [ng/mL] | IC50 (Stromelysin-1) [nM] | IC50 [15] [nM] | half-life [16] [h] | Cmax [17] [ng/mL] | clearance [18] [mL/min/kg] | other results |
| --- | --- | --- | --- | --- | --- | --- | --- | --- | --- | --- | --- | --- | --- | --- | --- | --- | --- | --- | --- |
| Cn1ccnc1[C@]1(CNC(=O)c2cc3cc(C(F)(F)F)ccc3o2)NC(=O)NC1=O | 30000 | < 5 | 25 | 1.6 | 4 | 7 | 10000 | 35 | 86000 | 8500 | 1100 | 4 | 90 | 69000 | 11000 | 4.3 | 3200 | 4.8 | inhibition (INH) (Cytochrome P450 2C9): < 5%; inhibition (INH) (Cytochrome P450 3A4): < 5%; inhibition (Rattus norvegicus [3]): Dose-dependent effect; inhibition (INH) (Cytochrome P450 2D6): < 5%; ED50 (Rattus norvegicus [13]): 30 mg/kg |
| C[C@]1(CNC(=O)c2cc3cc(Cl)ccc3o2)NC(=O)NC1=O (racemic) | – | – | – | – | 110 | – | – | 2400 | – | – | – | 150 | – | – | – | – | – | – | – |
| C[C@@]1(O)CCCN(S(=O)(=O)c2ccc(OCc3ccc(F)cc3Cl)cc2)[C@H]1C(=O)NO | 1 | – | – | – | 1 | – | 7 | 18 | 150 | – | 1900 | 1 | 840 | 3 | 5 | – | – | – | – |
| C[C@]1(CNC(=O)COc2ccc(Cl)cc2)NC(=O)NC1=O | 7000 | – | – | – | 74 | – | – | 620 | > 50000 | – | 430 | 350 | 50 | 50000 | 24000 | – | – | – | – |

Now from value to compound, other results behind:

| IC50 (Collagenase 3) [nM] | metabolised at 0.5 h [1] [%] | bioavailability [2] [%] | Tmax [4] [h] | IC50 [5] [nM] | metabolised at 0.5 h [6] [%] | IC50 [7] [nM] | IC50 [8] [nM] | IC50 [9] [nM] | AUC [10] [ng·h/mL] | concentration at 2 h [11] [ng/mL] | IC50 [12] [nM] | concentration at 8 h [14] [ng/mL] | IC50 (Stromelysin-1) [nM] | IC50 [15] [nM] | half-life [16] [h] | Cmax [17] [ng/mL] | clearance [18] [mL/min/kg] | SMILES | other results |
| --- | --- | --- | --- | --- | --- | --- | --- | --- | --- | --- | --- | --- | --- | --- | --- | --- | --- | --- | --- |
| – | 16 | 72 | 0.33 | – | 16 | – | – | – | 28000 | 4300 | – | 1300 | – | – | 3.2 | 6900 | 4 | O=C1NC(=O)[C@](CNC(=O)c2cc3cc(Cl)ccc3o2)(c2nccs2)N1 | – |
| 4700 | – | – | – | 22 | – | – | 530 | 8600 | – | – | 19 | – | 64000 | 7100 | – | – | – | Cn1nccc1[C@]1(CNC(=O)c2cc3cc(Cl)ccc3o2)NC(=O)NC1=O | – |
| 720 | – | – | – | 12 | – | 5400 | 420 | 3500 | – | < 200 | 22 | – | 3000 | 2100 | – | – | – | O=C1NC(=O)[C@](CNC(=O)c2cc3cc(Cl)ccc3o2)(c2ccccc2)N1 | – |
| 4200 | 17 | 58 | 0.33 | 5 | 13 | – | 110 | > 100000 | 8100 | 2200 | 9 | 80 | 38000 | 7500 | 4.2 | 4100 | 13 | Cn1ccnc1[C@]1(CNC(=O)c2cc3cc(Cl)ccc3o2)NC(=O)NC1=O | inhibition (INH) (Cytochrome P450 2C9): < 5%; inhibition (INH) (Cytochrome P450 3A4): < 5%; inhibition (INH) (Cytochrome P450 2D6): < 5%; ED50 (Rattus norvegicus [13]): 75 mg/kg |
| 3100 | – | – | – | 17 | – | – | 1700 | 18000 | – | – | 19 | – | 20000 | 6100 | – | – | – | Cc1cccnc1[C@]1(CNC(=O)c2cc3cc(Cl)ccc3o2)NC(=O)NC1=O (racemic) | – |

From ChEMBL document CHEMBL3351955, “Identification of potent and selective hydantoin inhibitors of aggrecanase-1 and aggrecanase-2 that are efficacious in both chemical and surgical models of osteoarthritis” (J Med Chem, 2014)
